The text below walks through data of ChEMBL document CHEMBL4477257, “In vitro cytotoxicity of novel 2,5,7-tricarbo-substituted indoles derived from 2-amino-5-bromo-3-iodoacetophenone” (2016).

Common to all, as to format: functional
For experiment [1], the system named is HeLa. As to the kind of experiment: Cytotoxicity against human HeLa cells assessed as reduction in cell viability after 2 days by MTT assay. The settings on record: 48 h, read-out: LC50 (the source's name).
The subject of experiment [2] is MCF7. As to the kind of experiment: Cytotoxicity against human MCF7 cells assessed as cell viability at 1 uM after 2 days by MTT assay relative to control. The settings on record: MCF7, 48 h, read-out: Activity. (In general: Formazan colour is commonly taken as a measure of viable cells.)
Experiment [3] concerns MCF7. The experiment in a line: Cytotoxicity against human MCF7 cells assessed as cell viability at 100 uM after 2 days by MTT assay relative to control. As to conditions: MCF7, 48 h, read-out: Activity.
Experiment [4] has as its system HeLa. As to the kind of experiment: Cytotoxicity against human HeLa cells assessed as cell viability at 10 uM after 2 days by MTT assay relative to control. As to conditions: 48 h, read-out: Activity.
Experiment [5] has as its system HeLa. As to the kind of experiment: Cytotoxicity against human HeLa cells assessed as cell viability at 0.1 uM after 2 days by MTT assay relative to control. As to conditions: 48 h, read-out: Activity.
The test system of experiment [6] is MCF7. The experiment in a line: Cytotoxicity against human MCF7 cells assessed as cell viability at 0.1 uM after 2 days by MTT assay relative to control. As to conditions: MCF7, 48 h, read-out: Activity.
Experiment [7] deals with HeLa. The experiment in a line: Cytotoxicity against human HeLa cells assessed as cell viability at 100 uM after 2 days by MTT assay relative to control. The settings on record: 48 h, read-out: Activity.
The test system of experiment [8] is MCF7. As to the kind of experiment: Cytotoxicity against human MCF7 cells assessed as reduction in cell viability after 2 days by MTT assay. As to conditions: MCF7, 48 h, read-out: LC50 (the source's name).
Experiment [9] has as its system MCF7. As to the kind of experiment: Cytotoxicity against human MCF7 cells assessed as cell viability at 10 uM after 2 days by MTT assay relative to control. The settings on record: MCF7, 48 h, read-out: Activity.
Experiment [10] has as its system HeLa. The experiment in a line: Cytotoxicity against human HeLa cells assessed as cell viability at 1 uM after 2 days by MTT assay relative to control. As to conditions: 48 h, read-out: Activity.

As for `CC(=O)c1cc(/C=C/c2ccccc2)cc2cc(-c3ccccc3)[nH]c12`, the CC50 is 30.8 µM in experiment [1] and more than 100 µM in experiment [8]. Further, the viability at 1 µM in [2] turned out to be 93.4%; in experiment [10], 79.8%. Also, the viability at 100 µM in experiment [3] was 34.1%; in [7], 21.2%. In addition, the viability at 10 µM amounted to 52.5% in experiment [4] and 86.5% in [9]. Besides, the viability at 0.1 µM in [5] was determined as 99%; in [6], 99.5%.

Consider `COc1ccc(-c2cc3cc(-c4ccccc4)cc(C(C)=O)c3[nH]2)cc1`, for which the results for the CC50 in experiment [1] and in [8] were 18.9 µM and more than 100 µM, respectively. Further, the viability at 1 µM came to 78.1% in experiment [2] and 61.5% in experiment [10]. Further, the viability at 100 µM was 43.5% in experiment [3] and 32.8% in [7]. Also, the viability at 10 µM in [4] was 51.6%; in experiment [9] it was 64.5%. Besides, the results for the viability at 0.1 µM in experiment [5] and in [6] were 80.5% and 87%, respectively.

In the case of `CC(=O)c1cc(/C=C/c2ccccc2)cc2cc(-c3ccc(F)cc3)[nH]c12`, the CC50 in [1] is 16.1 µM; in experiment [8] it was more than 100 µM. Also, the figures for the viability at 1 µM in experiment [2] and in [10] were 86.9% and 60.5%, respectively. The viability at 100 µM in experiment [3] amounted to 50.1%; in experiment [7], 24.2%. Moreover, the viability at 10 µM stood at 51.9% in experiment [4] and 69.5% in [9]. Also, the viability at 0.1 µM in experiment [5] was determined as 82.2%; in experiment [6], 98.4%.

Take `CC(=O)c1cc(-c2ccc(F)cc2)cc2cc(-c3ccccc3)[nH]c12`: the CC50 in experiment [1] was 38 µM; in experiment [8], more than 100 µM. For the same molecule, the viability at 1 µM in experiment [2] and in experiment [10] was 82.7% throughout. The viability at 100 µM was found to be 36.4% in [3] and 24.8% in experiment [7]. Besides, the results for the viability at 10 µM in experiment [4] and in [9] were 55.7% and 73.8%, respectively. For the same molecule, the viability at 0.1 µM was determined as 90.3% in experiment [5] and 98.3% in experiment [6].

Turning to `CC(=O)c1cc(-c2ccc(F)cc2)cc2cc(-c3ccc(F)cc3)[nH]c12`, the results for the CC50 in [1] and in experiment [8] were 13.8 µM and 87.4 µM, respectively. For the same molecule, the viability at 1 µM in experiment [2] came out at 93.2%; in experiment [10], 71.6%. The viability at 100 µM was determined as 20% in [3] and 9.31% in experiment [7]. Also, the viability at 10 µM in experiment [4] is 47.4%; in experiment [9], 90.6%. The values for the viability at 0.1 µM in experiment [5] and in [6] were 90% and 99.8%, respectively.

Regarding `COc1ccc(-c2cc(C(C)=O)c3[nH]c(-c4ccccc4)cc3c2)cc1`, the CC50 in experiment [1] was 15.5 µM; in [8], 47.8 µM. Also, the results for the viability at 1 µM in experiment [2] and in experiment [10] were 88.8% and 73.1%, respectively. Further, the viability at 100 µM in experiment [3] is 30.8%; in [7], 21.1%. Also, the viability at 10 µM in experiment [4] turned out to be 33.9%; in [9], 49.5%. In addition, the viability at 0.1 µM in experiment [5] stood at 87.9%; in [6], 99.2%.
